From US20230144436A1, “MUSCLE TARGETING COMPLEXES AND USES THEREOF FOR TREATING MYOTONIC DYSTROPHY” (Dyne Therapeutics, Inc., priority 2020, published 2023)

System: DMPK
Test: DMPK knockdown by transfected antisense oligonucleotides in DM1 C15 myotubes at 0.5 nM and 50 nM
Format: cell-based
Settings: 72 hours; for Normalized DMPK Remaining: relative to vehicle control = 1.00
Method in brief: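 Seven-day-differentiated DM1 C15 myotubes transfected (Lipofectamine MessengerMax) with each oligonucleotide at 0.5 nM or 50 nM final, biological triplicates. After 72 h, DMPK mRNA quantified by qPCR, expressed relative to vehicle-only transfection set to 1.00.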

[1] = 0.5 nM oligonucleotide, qPCR, relative to vehicle control
[2] = 50 nM oligonucleotide, qPCR, relative to vehicle control

Row | Substance | Percent DMPK Reduction [1] [%] | Normalized DMPK Remaining (0.5 nM oligonucleotide, qPCR) | Percent DMPK Reduction [2] [%] | Normalized DMPK Remaining (50 nM oligonucleotide, qPCR) | Percent DMPK Reduction (0.5 nM oligonucleotide) [%] | Normalized DMPK Remaining (0.5 nM oligonucleotide) | Percent DMPK Reduction (50 nM oligonucleotide) [%] | Normalized DMPK Remaining (50 nM oligonucleotide)
1 | 314 (UCAGCAGUGUCAGCAGGUCC; chemistry not given here) [compound 314] | 33.46 | 0.67 | 61.11 | 0.39 |  |  |  | 
2 | 321 (GCUCCCUCUGCCUGCAGCAA; chemistry not given here) [compound 321] | 26.41 | 0.74 | 70.15 | 0.30 |  |  |  | 
3 | 251 (CUCGGCCGGAAUCCGCUCCC; chemistry not given here) [compound 251] | 28.64 | 0.71 | 64.75 | 0.35 |  |  |  | 
4 | 449 (CCUCUGCCUCGCGUAGUUGA; chemistry not given here) [compound 449] |  |  |  |  | 7.39 | 0.93 | 85.33 | 0.15
5 | 277 (GACCAGGUACAGGUAGUUCU; chemistry not given here) [compound 277] | 42.85 | 0.57 | 70.95 | 0.29 |  |  |  | 
6 | 391 (UCACCAACACGUCCCUCUCC; chemistry not given here) [compound 391] |  |  |  |  | 47.12 | 0.53 | 84.09 | 0.16
7 | 432 (UGCCUCGCGUAGUUGACUGG; chemistry not given here) [compound 432] |  |  |  |  | 11.03 | 0.89 | 88.02 | 0.12
8 | 345 (AAGCGCCUCCGAUAGGCCAG; chemistry not given here) [compound 345] | 8.91 | 0.91 | 43.93 | 0.56 |  |  |  | 
9 | 422 (GUAGUUCUCAUCCUGGAAGG; chemistry not given here) [compound 422] |  |  |  |  | 7.43 | 0.93 | 55.09 | 0.45
10 | 478 (CCAGCGGCAGAGAGAGGUGC; chemistry not given here) [compound 478] |  |  |  |  | 3.23 | 0.97 | 84.55 | 0.15
11 | 416 (GCCUCGCGUAGUUGACUGGC; chemistry not given here) [compound 416] |  |  |  |  | 12.98 | 0.87 | 91.10 | 0.09
12 | 296 (AUCUCCGCCAGGUAGAAGCG; chemistry not given here) [compound 296] | 42.37 | 0.58 | 65.50 | 0.35 |  |  |  | 
13 | 477 (CAGCGGCAGAGAGAGGUGCT; chemistry not given here) [compound 477] |  |  |  |  | 4.49 | 0.96 | 86.00 | 0.14
14 | 259 (CAGCUGCGUGAUCCACCGCC; chemistry not given here) [compound 259] | 19.03 | 0.81 | 68.34 | 0.32 |  |  |  | 
15 | 431 (GGAGCAGGGAAAGCGCCUCC; chemistry not given here) [compound 431] |  |  |  |  | 21.46 | 0.79 | 88.35 | 0.12
16 | 307 (GGGUUUGAUGUCCCUGUGCA; chemistry not given here) [compound 307] | 40.12 | 0.60 | 62.61 | 0.37 |  |  |  | 
